Assay results taken from PubChem BioAssay (NCI).
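Dose response: 5 concentrations. Exposure: 48 h. Format: 96-well plates. Endpoint: linear interpolation; highest concentration if not reached. TGI: concentration producing complete growth inhibition.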

Legend:
Experiment in all cases: inhibition of tumour cell growth, NCI panel, 48 h
[1] = tested on: BT-549 breast
[2] = tested on: MCF7 breast
[3] = tested on: MDA-MB-231 breast
[4] = tested on: MDA-MB-435
[5] = tested on: 786-0 renal
[6] = tested on: SK-MEL-5 melanoma
[7] = tested on: UACC-62 melanoma
[8] = tested on: PC-3 prostate
[9] = tested on: SN12C renal
[10] = tested on: A498 renal
[11] = tested on: RPMI-8226 leukemia
[12] = tested on: UACC-257 melanoma
[13] = tested on: KM12 colon
[14] = tested on: NCI-H522 lung
[15] = tested on: IGROV1 ovarian
[16] = tested on: SR leukemia
[17] = tested on: SK-OV-3 ovarian
[18] = tested on: HCT-15 colon
[19] = tested on: TK-10 renal
[20] = tested on: T-47D breast
[21] = tested on: OVCAR-4 ovarian
[22] = tested on: LOX IMVI melanoma
[23] = tested on: MDA-N
[24] = tested on: SNB-19 CNS
[25] = tested on: SNB-75 CNS
[26] = tested on: NCI/ADR-RES ovarian
[27] = tested on: A549 NSCLC
[28] = tested on: EKVX NSCLC
[29] = tested on: K-562 leukemia
[30] = tested on: HS 578T breast
[31] = tested on: SW-620 colon
[32] = tested on: OVCAR-3 ovarian
[33] = tested on: SF-539 CNS
[34] = tested on: COLO 205 colon
[35] = tested on: HCT-116 colon
[36] = tested on: NCI-H226 lung
[37] = tested on: ACHN renal
[38] = tested on: SF-295 CNS
[39] = tested on: SK-MEL-28 melanoma
[40] = tested on: CAKI-1 renal
[41] = tested on: OVCAR-8 ovarian
[42] = tested on: NCI-H460 lung
[43] = tested on: HOP-62 NSCLC
[44] = tested on: MOLT-4 leukemia
[45] = tested on: UO-31 renal
[46] = tested on: CCRF-CEM leukemia
[47] = tested on: SK-MEL-2 melanoma
[48] = tested on: SF-268 CNS
[49] = tested on: DU-145 prostate
[50] = tested on: M14 melanoma
[51] = tested on: HL-60(TB) leukemia
[52] = tested on: OVCAR-5 ovarian
[53] = tested on: HT29 colon
[54] = tested on: NCI-H23 lung
[55] = tested on: U251 CNS
[56] = tested on: MALME-3M melanoma
[57] = tested on: HOP-92 NSCLC
[58] = tested on: HCC-2998 colon

SMILES: CN(C)C1C(CO)OC(n2cnc3c(N)ncnc32)C1O (stereo not given)
- TGI [1]: > 100 µM
- TGI [2]: > 100 µM
- TGI [3]: > 100 µM
- TGI [4]: > 100 µM
- TGI [5]: > 100 µM
- TGI [6]: > 100 µM
- TGI [7]: > 100 µM
- TGI [8]: > 100 µM
- TGI [9]: > 100 µM
- TGI [10]: > 100 µM
- TGI [11]: > 100 µM
- TGI [12]: > 100 µM
- TGI [13]: > 100 µM
- TGI [14]: > 100 µM
- TGI [15]: > 100 µM
- TGI [16]: > 100 µM
- TGI [17]: > 100 µM
- TGI [18]: > 100 µM
- TGI [19]: > 100 µM
- TGI [20]: > 100 µM
- TGI [21]: > 100 µM
- TGI [22]: > 100 µM
- TGI [23]: > 100 µM
- TGI [24]: > 100 µM
- TGI [25]: > 100 µM
- TGI [26]: > 100 µM
- TGI [27]: > 100 µM
- TGI [28]: > 100 µM
- TGI [29]: > 100 µM
- TGI [30]: > 100 µM
- TGI [31]: > 100 µM
- TGI [32]: > 100 µM
- TGI [33]: > 100 µM
- TGI [34]: > 100 µM
- TGI [35]: > 100 µM
- TGI [36]: > 100 µM
- TGI [37]: > 100 µM
- TGI [38]: > 100 µM
- TGI [39]: > 100 µM
- TGI [40]: > 100 µM
- TGI [41]: > 100 µM
- TGI [42]: > 100 µM
- TGI [43]: > 100 µM
- TGI [44]: > 100 µM
- TGI [45]: > 100 µM
- TGI [46]: > 100 µM
- TGI [47]: > 100 µM
- TGI [48]: > 100 µM
- TGI [49]: > 100 µM
- TGI [50]: > 100 µM
- TGI [51]: > 100 µM
- TGI [52]: > 100 µM
- TGI [53]: > 100 µM
- TGI [54]: > 100 µM
- TGI [55]: > 100 µM

SMILES: O=[N+]([O-])c1ccc(NC(=S)N=Nc2c(O)[nH]c3ccccc23)cc1
- TGI [1]: 55.4 µM
- TGI [2]: 38.1 µM
- TGI [3]: 13.9 µM
- TGI [4]: 53.7 µM
- TGI [5]: 18.4 µM
- TGI [56]: 21.9 µM
- TGI [6]: 24 µM
- TGI [7]: 24 µM
- TGI [8]: 16.6 µM
- TGI [9]: 63 µM
- TGI [11]: > 100 µM
- TGI [12]: 47.3 µM
- TGI [13]: 78.2 µM
- TGI [14]: 34.9 µM
- TGI [15]: 29.3 µM
- TGI [16]: > 100 µM
- TGI [17]: 14.8 µM
- TGI [18]: 16.7 µM
- TGI [57]: 30.7 µM
- TGI [20]: 37.7 µM
- TGI [21]: 79.6 µM
- TGI [22]: 36.3 µM
- TGI [23]: 30.2 µM
- TGI [24]: 36.4 µM
- TGI [25]: 31.4 µM
- TGI [26]: 23.7 µM
- TGI [27]: 21.5 µM
- TGI [28]: 43 µM
- TGI [29]: > 100 µM
- TGI [30]: 59.8 µM
- TGI [31]: 34.2 µM
- TGI [32]: 28.1 µM
- TGI [33]: 31.1 µM
- TGI [34]: 26.3 µM
- TGI [35]: 18.6 µM
- TGI [37]: 21.1 µM
- TGI [38]: 21.5 µM
- TGI [58]: 26.7 µM
- TGI [39]: 36.9 µM
- TGI [40]: 21.7 µM
- TGI [41]: 3.16 µM
- TGI [42]: 29.2 µM
- TGI [43]: 18.1 µM
- TGI [44]: 19.8 µM
- TGI [45]: 19.3 µM
- TGI [46]: > 100 µM
- TGI [47]: 23.3 µM
- TGI [48]: 37.9 µM
- TGI [49]: 29.5 µM
- TGI [50]: 25.7 µM
- TGI [51]: > 100 µM
- TGI [52]: 43.3 µM
- TGI [53]: > 100 µM
- TGI [54]: 54.5 µM
- TGI [55]: 38.7 µM
